Each substance was assayed against CpOGA (Clostridium perfringens, UniProt Q0TR53). Details: read-out: Michaelis constant (KM) of glycopeptide substrate for CpOGA; pH 7.4.
“PVSVPYS(O-GlcNAc)SAQSTS [TAB1 (Ser395) 13]” was tested, and the Km was 36 ± 1 µM. VAHS(O-GlcNAc)GAK [hOGA (Ser405) 7] gave a Km of 40 ± 10 µM. Work on “p53 (Ser149) 11: 11-residue O-GlcNAc glycopeptide derived from p53 Ser149 site” yielded a Km of 2.9 ± 0.4 µM.

Source: publication PMC3476531, “Synergy of Peptide and Sugar in O-GlcNAcase Substrate Recognition” (Chemistry & Biology, 2012)
